Measured values published in patent US7968568B2, “Substituted piperidine derivatives as SST5 modulators” (Hoffmann-La Roche Inc., priority 2006, dated 2011).

Target: T1, human subtype 5 somatostatin receptor (Homo sapiens, UniProt P35346)
T1 construct: host or cells: CHO cell line, stably transfected; membranes prepared
Experiment: SSTR5 radioligand binding assay (125I-labeled 11-Tyr somatostatin-14) on CHO cell membranes
Conditions: Ki calculated from IC50 by Cheng-Prussoff equation
Procedure: A CHO cell line stably transfected with a plasmid encoding the human subtype 5 somatostatin receptor (GenBank accession number D16827) was obtained from Euroscreen. Cells were cultured and used for binding and functional assays.
Membranes of these cells were prepared by sonication in the presence of protease inhibitors and subsequent fractionating centrifugation. The protein concentration in the membrane preparation was determined using a commercial kit (BCA kit, Pierce, USA). Membranes were stored at −80° C. until use. After thawing, membranes were diluted in assay buffer (50 mM Tris-HCl at pH 7.4, 5 mM MgCl2 and 0.20% BSA) and subjected to dounce homogenization.
For binding studies, 0.1 mL membrane suspension, corresponding to app. 6×10^−15 mol receptor, was incubated for 1 h at room temperature with 0.05 nM ^125I-labeled tracer (11-Tyr somatostatin-14, Perkin-Elmer) and either test compounds in varying concentrations or, for the determination of non-specific binding, 0.001 mM non-labeled somatostatin-14. The incubation was stopped by filtration through GF/B glassfiber filters and washing with ice-cold wash buffer (50 mM Tris-HCl at pH 7.4). The bound radioactivity was measured after application of a scintillation cocktail (Microscint 40) and expressed as disintegrations per minute (dpm).
The receptor concentration was determined in a prior saturation experiment where a fixed, arbitrary amount of membranes was incubated with a concentration range of radio-labeled tracer. This allows estimating the total number of specific binding sites per amount of protein (i.e., Bmax), typically between 1 and 5 pmol/mg.
The concentration of the test compound required to result in half maximal inhibition of binding of the radio-labeled tracer (IC50) was estimated from a concentration-versus-dpm graph. The binding affinity (Ki) was calculated from the IC50 by applying the Cheng-Prussoff equation for single binding sites.

T1 sequence (P35346 whole entry): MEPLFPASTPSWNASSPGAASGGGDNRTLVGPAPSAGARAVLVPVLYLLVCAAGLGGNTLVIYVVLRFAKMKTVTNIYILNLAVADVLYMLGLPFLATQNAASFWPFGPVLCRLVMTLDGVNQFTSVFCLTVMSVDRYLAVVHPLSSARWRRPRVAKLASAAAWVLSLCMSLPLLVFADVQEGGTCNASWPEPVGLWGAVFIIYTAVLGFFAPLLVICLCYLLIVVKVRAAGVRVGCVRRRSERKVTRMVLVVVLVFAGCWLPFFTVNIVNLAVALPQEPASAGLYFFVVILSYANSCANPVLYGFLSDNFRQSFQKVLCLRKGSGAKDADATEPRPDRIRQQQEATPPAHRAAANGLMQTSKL

| Ki [nM] | SMILES |
| --- | --- |
| 2 | CCOc1cc(CN2CCC(Nc3ncnc4cc(Cl)ccc34)CC2)ccc1Cl [Example 23, [1-(4-chloro-3-ethoxy-benzyl)-piperidin-4-yl]-(7-chloro-quinazolin-4-yl)-amine] |
| 78 | C=CCOc1cc(CN2CCC(Nc3nc(Cl)ncc3OC)CC2)ccc1OC [Example 147, [1-(3-allyloxy-4-methoxy-benzyl)-piperidin-4-yl]-(2-chloro-5-methoxy-pyrimidin-4-yl)-amine] |
| 383 | CCOc1cc(CN2CCC(Nc3nc(Cl)nc4cc(Cl)c(F)cc34)CC2)ccc1OC [Example 15, (2,7-dichloro-6-fluoro-quinazolin-4-yl)-[1-(3-ethoxy-4-methoxy-benzyl)-piperidin-4-yl]-amine] |
